Holding throughout (conditions): 72 h
The test system of test [1] is MDA-MB-468. The procedure: (§1)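 Drug sensitivity and resistance testing (DSRT) of breast cancer cell lines in 384-well plates, 5 concentrations in 10-fold dilutions over a compound-specific 10,000-fold range. After 72 h, cytotoxicity was read by CellTox Green fluorescence and viability by CellTiter-Glo luminescence (multiplexed), normalised to DMSO and benzethonium chloride controls. EC50 is the inflection point of the fitted dose-response curve (bottom asymptote free, so it can be relative for partial curves) and is censored at the highest tested concentration. Rows with DSS 0 (no meaningful response) were excluded.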

Test [2] relates to CAL-120. On the procedure: as §1
In test [3] the test system is CAL-51. A digest of the protocol: (§2)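 In this assay, breast cancer cell lines spent 72 h with compound at 5 concentrations in 10-fold steps over a compound-specific 10,000-fold range. The first readout was cell death by CellTox Green fluorescence, and the second was viability by CellTiter-Glo luminescence, each normalised per plate to 0.1 % DMSO and a positive kill control. EC50 came from the dose-response curves, censored at the top concentration.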

In test [4] the test system is MFM-223. The procedure:
as §1

Test [5] concerns HCC1937. The procedure:
as §1

Test [6] relates to Hs578T. The procedure:
as §1

The test system of test [7] is HCC1599. On the procedure: as §1
In test [8] the test system is HDQ-P1. The procedure: as §1
Test [9] relates to CAL-51. On the procedure:
as §1
This is another data set of the same source.

The subject of test [10] is MDA-MB-453. On the procedure: as §1
Test [11] has as its system BT-474. The procedure:
as §1

Test [12] concerns DU-4475. On the procedure: as §1
The subject of test [13] is BT-549. On the procedure: as §1
The test system of test [14] is MDA-MB-231. On the procedure: as §1
Test [15] concerns CAL-85-1. On the procedure: as §1
For test [16], the system named is MCF-10A. On the procedure:
as §1

In test [17] the test system is HCC1143. The procedure: as §1
For test [18], the system named is MFM-223. A digest of the protocol:
as §2
The source holds these as a separate data set.

Another test concerns CAL-148. A digest of the protocol:
as §2

In test [19] the test system is HCC1937. In outline: as §2
The source holds these as a separate data set.

For test [20], the system named is Hs578T. A digest of the protocol: as §2
The source holds these as a separate data set.

Test [21] concerns HCC1599. In outline: as §2
This is another data set of the same source.

Test [22] relates to MDA-MB-436. In outline: as §2
For test [23], the system named is SK-BR-3. A digest of the protocol: as §2
The subject of test [24] is MDA-MB-453. A digest of the protocol:
as §2
The source holds these as a separate data set.

The test system of test [25] is DU-4475. In outline:
as §2
This is another data set of the same source.

Test [26] deals with CAL-120. A digest of the protocol:
as §2
This is another data set of the same source.

Test [27] concerns BT-549. A digest of the protocol: as §2
The source holds these as a separate data set.

In test [28] the test system is MDA-MB-231. A digest of the protocol: as §2
The source holds these as a separate data set.

Test [29] relates to CAL-85-1. A digest of the protocol:
as §2
This is another data set of the same source.

In test [30] the test system is MCF-10A. In outline:
as §2
This is another data set of the same source.

The test system of test [31] is HCC1143. In outline:
as §2
This is another data set of the same source.

In test [32] the test system is HCC1937. In outline:
(§3)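 Breast cancer cell lines in 20 µl suspension were seeded onto 384-well plates pre-loaded with compound dissolved in 5 µl medium, then incubated 72 h. For viability, 2.5 µl CellTiter-Blue was added for 2 h at 37 °C and fluorescence read at 560/590 nm. Each plate was normalised to vehicle and a positive kill control and checked by Z'-factor. EC50 comes from the fitted percent-inhibition dose-response curve, censored at the highest concentration; rows with zero drug sensitivity score were dropped.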
The source holds these as a separate data set.

In test [33] the test system is Hs578T. A digest of the protocol: as §3
This is another data set of the same source.

The subject of test [34] is MDA-MB-436. A digest of the protocol:
as §3
The source holds these as a separate data set.

The test system of test [35] is MDA-MB-468. A digest of the protocol:
as §3
The source holds these as a separate data set.

Test [36] concerns SK-BR-3. A digest of the protocol: as §3
The source holds these as a separate data set.

In test [37] the test system is BT-474. A digest of the protocol:
as §3
This is another data set of the same source.

Test [38] has as its system CAL-120. A digest of the protocol: as §3
The source holds these as a separate data set.

The test system of test [39] is BT-549. A digest of the protocol: as §3
This is another data set of the same source.

Test [40] has as its system MDA-MB-231. A digest of the protocol:
as §3
This is another data set of the same source.

Test [41] has as its system HCC1143. A digest of the protocol:
as §3
This is another data set of the same source.

Test [42] relates to HDQ-P1. A digest of the protocol: as §3
The source holds these as a separate data set.

The test system of test [43] is CAL-51. A digest of the protocol: as §3
The source holds these as a separate data set.

Test [44] concerns MDA-MB-453. A digest of the protocol:
as §3
This is another data set of the same source.

For test [45], the system named is DU-4475. In outline: as §3
The source holds these as a separate data set.

The test system of test [46] is CAL-85-1. A digest of the protocol: as §3
The source holds these as a separate data set.

For `CC1(C)CCC(CN2CCN(c3ccc(C(=O)NS(=O)(=O)c4ccc(NCC5CCOCC5)c([N+](=O)[O-])c4)c(Oc4cnc5[nH]ccc5c4)c3)CC2)=C(c2ccc(Cl)cc2)C1` [ABT-199], the “EC50, CellTox Green” value with MDA-MB-468 [1] was 3.5 nM; in the test on CAL-120 [2], greater than 10000 nM. Moreover, in the test on CAL-51 [3], the “EC50, CellTiter-Glo” value is 702 nM.

Take `Cc1ccc([N+](=O)[O-])cc1S(=O)(=O)N(C)/N=C/c1cnc2ccc(Br)cn12` [PIK-75]: the “EC50, CellTox Green” value in the test on MFM-223 [4] was found to be 582 nM; in the test on HCC1937 [5] it was 6400 nM; in the test with Hs578T [6], 42 nM; in the test on HCC1599 [7], 33.9 nM; with HDQ-P1 [8], 105 nM; with CAL-51 [9], 6.21 nM. Besides, the “EC50, CellTox Green” value in the test on MDA-MB-468 [1] amounted to 178 nM; with MDA-MB-453 [10] it was 597 nM; in the test on BT-474 [11], 161 nM; in the test on DU-4475 [12], 23.8 nM; in the test on BT-549 [13], 274 nM; in the test with MDA-MB-231 [14] it was 6.39 nM. For the same compound, the “EC50, CellTox Green” value was 31.6 nM in the test with CAL-85-1 [15], 16.6 nM with MCF-10A [16] and 182 nM in the test with HCC1143 [17]. The “EC50, CellTiter-Glo” value is 52.1 nM in the test with MFM-223 [18]; 21.1 nM in the test on CAL-148; 48.5 nM with HCC1937 [19]; 35.4 nM in the test with Hs578T [20]; 87.2 nM in the test with HCC1599 [21]; 29.8 nM in the test on MDA-MB-436 [22]. The “EC50, CellTiter-Glo” value with CAL-51 [3] was found to be 21.3 nM; with SK-BR-3 [23], 26.8 nM; in the test with MDA-MB-453 [24], 98.6 nM; in the test with DU-4475 [25], 35.2 nM; with CAL-120 [26], 29.2 nM; in the test on BT-549 [27], 39 nM. In addition, the “EC50, CellTiter-Glo” value in the test on MDA-MB-231 [28] was determined as 27.6 nM; with CAL-85-1 [29] it was 30.6 nM; in the test with MCF-10A [30], 45.7 nM; in the test with HCC1143 [31], 51.3 nM.

Consider `COc1cc2c(cc1O)CC[C@@H]1[C@@H]2CC[C@]2(C)[C@@H](O)CC[C@@H]12` [2-methoxyestradiol], for which the “EC50, CellTiter-Blue viability” value with HCC1937 [32] was determined as 820 nM; in the test with Hs578T [33], 1210 nM; with MDA-MB-436 [34] it was 697 nM; in the test with MDA-MB-468 [35], 3190 nM; with SK-BR-3 [36], 5800 nM; with BT-474 [37] it was 747 nM. The “EC50, CellTiter-Blue viability” value in the test with CAL-120 [38] worked out at 1510 nM; with BT-549 [39] it was 1020 nM; in the test on MDA-MB-231 [40], 432 nM; in the test with HCC1143 [41] it was 5620 nM; in the test with HDQ-P1 [42] it was 4220 nM; in the test on CAL-51 [43], 2450 nM. In addition, the figures for the “EC50, CellTiter-Blue viability” value with MDA-MB-453 [44], with DU-4475 [45] and with CAL-85-1 [46] were 552 nM, 1730 nM and 1280 nM, respectively. In addition, the “EC50, CellTox Green” value was 660 nM in the test with MFM-223 [4]; 1820 nM in the test on Hs578T [6]; 4060 nM in the test on CAL-51 [9]; 370 nM in the test on BT-474 [11]; 6410 nM in the test on CAL-120 [2]; greater than 10000 nM in the test on BT-549 [13]. Also, in the test on MDA-MB-231 [14], the “EC50, CellTox Green” value amounted to 756 nM. For the same compound, the “EC50, CellTiter-Glo” value is 1830 nM in the test with MFM-223 [18]; 7660 nM with CAL-148; 1400 nM with Hs578T [20]; 6410 nM with HCC1599 [21]; 1060 nM with MDA-MB-436 [22]; 4930 nM in the test with CAL-51 [3]. In addition, the “EC50, CellTiter-Glo” value with SK-BR-3 [23] was determined as 3130 nM; in the test on MDA-MB-453 [24], 543 nM; in the test with DU-4475 [25], 4530 nM; with CAL-120 [26], 1020 nM; in the test with BT-549 [27] it was 251 nM; in the test with MDA-MB-231 [28], 938 nM. Also, the “EC50, CellTiter-Glo” value in the test on CAL-85-1 [29] stood at 2220 nM; with HCC1143 [31], 1300 nM.

(Values after the supplement of paper PMC4862054.)
